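Cultured in 96-well plates, cells were exposed to test compound for 48 hours across five concentrations. Abbreviation: GI50, concentration required for 50% inhibition of growth. TGI: total growth inhibition.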
Tests used:
Assay in all cases: DTP human tumour cell line panel, 48 h
786-0 renal = system: 786-0 renal
A498 renal = system: A498 renal
A549 NSCLC = system: A549 NSCLC
ACHN renal = system: ACHN renal
BT-549 breast = system: BT-549 breast
CAKI-1 renal = system: CAKI-1 renal
CCRF-CEM leukemia = system: CCRF-CEM leukemia
COLO 205 colon = system: COLO 205 colon
DU-145 prostate = system: DU-145 prostate
EKVX NSCLC = system: EKVX NSCLC
HCC-2998 colon = system: HCC-2998 colon
HCT-116 colon = system: HCT-116 colon
HCT-15 colon = system: HCT-15 colon
HL-60(TB) leukemia = system: HL-60(TB) leukemia
HOP-62 NSCLC = system: HOP-62 NSCLC
HOP-92 NSCLC = system: HOP-92 NSCLC
HS 578T breast = system: HS 578T breast
HT29 colon = system: HT29 colon
IGROV1 ovarian = system: IGROV1 ovarian
K-562 leukemia = system: K-562 leukemia
KM12 colon = system: KM12 colon
LOX IMVI melanoma = system: LOX IMVI melanoma
M14 melanoma = system: M14 melanoma
MALME-3M melanoma = system: MALME-3M melanoma
MCF7 breast = system: MCF7 breast
MDA-MB-231 breast = system: MDA-MB-231 breast
MDA-MB-435 = system: MDA-MB-435
MDA-MB-468 breast = system: MDA-MB-468 breast
MOLT-4 leukemia = system: MOLT-4 leukemia
NCI-H226 lung = system: NCI-H226 lung
NCI-H23 lung = system: NCI-H23 lung
NCI-H460 lung = system: NCI-H460 lung
NCI-H522 lung = system: NCI-H522 lung
OVCAR-3 ovarian = system: OVCAR-3 ovarian
OVCAR-4 ovarian = system: OVCAR-4 ovarian
OVCAR-5 ovarian = system: OVCAR-5 ovarian
OVCAR-8 ovarian = system: OVCAR-8 ovarian
PC-3 prostate = system: PC-3 prostate
RPMI-8226 leukemia = system: RPMI-8226 leukemia
RXF 393 renal = system: RXF 393 renal
SF-268 CNS = system: SF-268 CNS
SF-295 CNS = system: SF-295 CNS
SF-539 CNS = system: SF-539 CNS
SK-MEL-28 melanoma = system: SK-MEL-28 melanoma
SK-MEL-5 melanoma = system: SK-MEL-5 melanoma
SK-OV-3 ovarian = system: SK-OV-3 ovarian
SN12C renal = system: SN12C renal
SNB-19 CNS = system: SNB-19 CNS
SNB-75 CNS = system: SNB-75 CNS
SR leukemia = system: SR leukemia
SW-620 colon = system: SW-620 colon
T-47D breast = system: T-47D breast
TK-10 renal = system: TK-10 renal
U251 CNS = system: U251 CNS
UACC-257 melanoma = system: UACC-257 melanoma
UACC-62 melanoma = system: UACC-62 melanoma
UO-31 renal = system: UO-31 renal

Cc1sc(C(NC(=O)OCCn2c([N+](=O)[O-])cnc2C)C(F)(F)Cl)nc1-c1ccc(OC(F)(F)F)cc1 (centres undefined)
GI50 (786-0 renal): 7.35 µM | TGI (786-0 renal): 20.7 µM | GI50 (A498 renal): 4.98 µM | TGI (A498 renal): 20.6 µM | GI50 (A549 NSCLC): 4.57 µM | TGI (A549 NSCLC): 20.4 µM | GI50 (ACHN renal): 3.04 µM | TGI (ACHN renal): 11.3 µM | GI50 (BT-549 breast): 5.57 µM | TGI (BT-549 breast): 18.6 µM | GI50 (CAKI-1 renal): 2.83 µM | TGI (CAKI-1 renal): 11.8 µM | GI50 (CCRF-CEM leukemia): 2.32 µM | TGI (CCRF-CEM leukemia): 16.4 µM | GI50 (COLO 205 colon): 5.8 µM | TGI (COLO 205 colon): 21.3 µM | GI50 (DU-145 prostate): 4.97 µM | TGI (DU-145 prostate): 17.9 µM | GI50 (EKVX NSCLC): 2.8 µM | TGI (EKVX NSCLC): 12.6 µM | GI50 (HCC-2998 colon): 4.8 µM | TGI (HCC-2998 colon): 17 µM | GI50 (HCT-116 colon): 4.78 µM | TGI (HCT-116 colon): 20.1 µM | GI50 (HCT-15 colon): 3.19 µM | TGI (HCT-15 colon): 12.1 µM | GI50 (HL-60(TB) leukemia): 4.06 µM | TGI (HL-60(TB) leukemia): 24.1 µM | GI50 (HOP-62 NSCLC): 8.7 µM | TGI (HOP-62 NSCLC): 23.9 µM | GI50 (HOP-92 NSCLC): 2.86 µM | TGI (HOP-92 NSCLC): 11.6 µM | GI50 (HS 578T breast): 2.55 µM | TGI (HS 578T breast): 33 µM | GI50 (HT29 colon): 3.56 µM | TGI (HT29 colon): 13 µM | GI50 (IGROV1 ovarian): 6.15 µM | TGI (IGROV1 ovarian): 19.5 µM | GI50 (K-562 leukemia): 3.62 µM | TGI (K-562 leukemia): > 100 µM | GI50 (KM12 colon): 3.63 µM | TGI (KM12 colon): 14.7 µM | GI50 (LOX IMVI melanoma): 3.42 µM | TGI (LOX IMVI melanoma): 13.6 µM | GI50 (M14 melanoma): 4.56 µM | TGI (M14 melanoma): 18.2 µM | GI50 (MALME-3M melanoma): 6.79 µM | TGI (MALME-3M melanoma): 21.8 µM | GI50 (MCF7 breast): 2.68 µM | TGI (MCF7 breast): 10.3 µM | GI50 (MDA-MB-231 breast): 3.37 µM | TGI (MDA-MB-231 breast): 12.3 µM | GI50 (MDA-MB-435): 3.87 µM | TGI (MDA-MB-435): 15.5 µM | GI50 (MDA-MB-468 breast): 2.37 µM | TGI (MDA-MB-468 breast): 8.73 µM | GI50 (MOLT-4 leukemia): 3.74 µM | TGI (MOLT-4 leukemia): 16.5 µM | GI50 (NCI-H226 lung): 3.78 µM | TGI (NCI-H226 lung): 16.7 µM | GI50 (NCI-H23 lung): 7.46 µM | TGI (NCI-H23 lung): 22.7 µM | GI50 (NCI-H460 lung): 3.31 µM | TGI (NCI-H460 lung): > 100 µM | GI50 (NCI-H522 lung): 3.82 µM | TGI (NCI-H522 lung): 15.3 µM | GI50 (OVCAR-3 ovarian): 3.68 µM | TGI (OVCAR-3 ovarian): 13.3 µM | GI50 (OVCAR-4 ovarian): 3.85 µM | TGI (OVCAR-4 ovarian): 15.7 µM | GI50 (OVCAR-5 ovarian): 4.28 µM | TGI (OVCAR-5 ovarian): 17.6 µM | GI50 (OVCAR-8 ovarian): 7.09 µM | TGI (OVCAR-8 ovarian): 22.6 µM | GI50 (PC-3 prostate): 2.65 µM | TGI (PC-3 prostate): 14.8 µM | GI50 (RPMI-8226 leukemia): 3.41 µM | TGI (RPMI-8226 leukemia): 54.6 µM | GI50 (RXF 393 renal): 2.65 µM | TGI (RXF 393 renal): 12.6 µM | GI50 (SF-268 CNS): 3.6 µM | TGI (SF-268 CNS): 16.3 µM | GI50 (SF-295 CNS): 3.26 µM | TGI (SF-295 CNS): 13.7 µM | GI50 (SF-539 CNS): 9.15 µM | TGI (SF-539 CNS): 21.4 µM | GI50 (SK-MEL-28 melanoma): 4.84 µM | TGI (SK-MEL-28 melanoma): 17.1 µM | GI50 (SK-MEL-5 melanoma): 3.89 µM | TGI (SK-MEL-5 melanoma): 14.7 µM | GI50 (SK-OV-3 ovarian): 12 µM | TGI (SK-OV-3 ovarian): 26.2 µM | GI50 (SN12C renal): 4.47 µM | TGI (SN12C renal): 15.9 µM | GI50 (SNB-19 CNS): 4.93 µM | TGI (SNB-19 CNS): 17.4 µM | GI50 (SNB-75 CNS): 1.43 µM | TGI (SNB-75 CNS): 14.2 µM | GI50 (SR leukemia): 3.58 µM | TGI (SR leukemia): 30.6 µM | GI50 (SW-620 colon): 7.32 µM | TGI (SW-620 colon): > 100 µM | GI50 (T-47D breast): 3.11 µM | TGI (T-47D breast): 12.8 µM | GI50 (TK-10 renal): 3.96 µM | TGI (TK-10 renal): 15.8 µM | GI50 (U251 CNS): 5.38 µM | TGI (U251 CNS): 19.2 µM | GI50 (UACC-257 melanoma): 7.75 µM | TGI (UACC-257 melanoma): 22.5 µM | GI50 (UACC-62 melanoma): 3.53 µM | TGI (UACC-62 melanoma): 15.4 µM | GI50 (UO-31 renal): 2.77 µM | TGI (UO-31 renal): 13.5 µM

— PubChem BioAssay (NCI)
